Values quoted from earlier work as cited in article PMC9501129 (Pharmaceutics, 2022).
Read-outs that look alike come from different tables or passages of the source.

Assays:
[1] = cited from earlier work
[2] = tested on: pregnant rabbits; settings: CAB orally 0, 30, 500, or 2000 mg/kg/day, gestational day 7 to 19; cited from earlier work
[3] = tested on: pregnant rats; settings: gestational day 0 to 17, cited from earlier work
[4] = ART-naïve, Switch study, ART-experienced, virologically suppressed, CAB/rilpivirin LA every 4 weeks, initial injection 600 mg IM
[5] = ART-naïve, Switch study, ART-experienced, virologically suppressed, CAB/rilpivirin LA every 4 weeks, oral 30 mg once daily
[6] = Healthy Participants (Females), 30 mg oral phase, 600 mg LA CAB every 12 weeks, 1st injection
[7] = Healthy Participants (Females), 30 mg oral phase, 600 mg LA CAB every 12 weeks, 2nd injection
[8] = Healthy Participants (Females), 30 mg oral phase, 600 mg LA CAB every 12 weeks, 3rd injection
[9] = Healthy Participants (Females), 30 mg oral phase, 600 mg LA CAB every 12 weeks, 4th injection
[10] = Healthy Participants (Females), 30 mg oral phase, 600 mg LA CAB every 12 weeks, 5th injection
[11] = Healthy Participants (Females), 30 mg oral phase, 800 mg LA CAB every 12 weeks, 1st injection
[12] = Healthy Participants (Females), 30 mg oral phase, 800 mg LA CAB every 12 weeks, 2nd injection
[13] = Healthy Participants (Females), 30 mg oral phase, 800 mg LA CAB every 12 weeks, 3rd injection
[14] = Healthy Participants (Males), 30 mg oral phase, 600 mg LA CAB every 12 weeks, 1st injection
[15] = Healthy Participants (Males), 30 mg oral phase, 600 mg LA CAB every 12 weeks, 2nd injection
[16] = Healthy Participants (Males), 30 mg oral phase, 600 mg LA CAB every 12 weeks, 3rd injection
[17] = Healthy Participants (Males), 30 mg oral phase, 600 mg LA CAB every 12 weeks, 4th injection
[18] = Healthy Participants (Males), 30 mg oral phase, 600 mg LA CAB every 12 weeks, 5th injection
[19] = Healthy Participants (Males), 30 mg oral phase, 800 mg LA CAB every 12 weeks, 1st injection, ref 28
[20] = Healthy Participants (Males), 30 mg oral phase, 800 mg LA CAB every 12 weeks, 1st injection, ref 29
[21] = Healthy Participants (Males), 30 mg oral phase, 800 mg LA CAB every 12 weeks, 2nd injection, ref 28
[22] = Healthy Participants (Males), 30 mg oral phase, 800 mg LA CAB every 12 weeks, 2nd injection, ref 29
[23] = Healthy Participants (Males), 30 mg oral phase, 800 mg LA CAB every 12 weeks, 3rd injection, ref 28
[24] = Healthy Participants (Males), 30 mg oral phase, 800 mg LA CAB every 12 weeks, 3rd injection, ref 29
[25] = Healthy Participants, oral lead-in followed by LA CAB IM or SC injection: 30 mg, with Rilpivirine LA IM monthly
[26] = Healthy Participants, oral lead-in followed by LA CAB injection: 200 mg IM, with Rilpivirine LA IM monthly
[27] = Healthy Participants, oral lead-in followed by LA CAB injection: 200 mg SC, with Rilpivirine LA IM monthly
[28] = Healthy Participants, oral lead-in followed by LA CAB injection: 400 mg IM, with Rilpivirine LA IM monthly
[29] = Healthy Participants, oral lead-in followed by LA CAB injection: 800 mg IM, with Rilpivirine LA IM monthly
[30] = Healthy Participants, repeat oral dose 5 mg
[31] = Healthy Participants, repeat oral dose 10 mg
[32] = Healthy Participants, repeat oral dose 25 mg
[33] = Healthy Participants, single oral dose 5 mg
[34] = Healthy Participants, single oral dose 10 mg
[35] = Healthy Participants, single oral dose 25 mg
[36] = Healthy Participants, single oral dose 50 mg
[37] = Participants with HIV, repeat oral dose 30 mg
[38] = Participants with HIV, single oral dose 5 mg

## C[C@H]1CO[C@@H]2Cn3cc(C(=O)NCc4ccc(F)cc4F)c(=O)c(O)c3C(=O)N12 [CAB, cabotegravir]
[1]; [4]
  Human Plasma Levels Cmax: 8000 ng/mL
  Human Plasma Levels Cmin: 1500 ng/mL
[1]; ART-naïve, Switch study, ART-experienced, virologically suppressed, CAB/rilpivirin LA every 4 weeks, monthly injection 400 mg IM
  Human Plasma Levels Cmin: 2800 ng/mL
[1]; [5]
  Human Plasma Levels Cmax: 8000 ng/mL
  Human Plasma Levels Cmin: 4600 ng/mL
[1]; [6]
  Human Plasma Levels Cmax: 1580 ng/mL
  Human Plasma Levels Cmin: 1330 ng/mL
[1]; [7]
  Human Plasma Levels Cmax: 2960 ng/mL
  Human Plasma Levels Cmin: 1820 ng/mL
[1]; [8]
  Human Plasma Levels Cmax: 3460 ng/mL
  Human Plasma Levels Cmin: 2040 ng/mL
[1]; [9]
  Human Plasma Levels Cmax: 3330 ng/mL
  Human Plasma Levels Cmin: 2060 ng/mL
[1]; [10]
  Human Plasma Levels Cmax: 3660 ng/mL
  Human Plasma Levels Cmin: 2030 ng/mL
[1]; [11]
  Human Plasma Levels Cmax: 1890 ng/mL
  Human Plasma Levels Cmin: 950 ng/mL
[1]; [12]
  Human Plasma Levels Cmax: 2290 ng/mL
  Human Plasma Levels Cmin: 1350 ng/mL
[1]; [13]
  Human Plasma Levels Cmax: 3010 ng/mL
  Human Plasma Levels Cmin: 1650 ng/mL
[1]; [14]
  Human Plasma Levels Cmax: 2510 ng/mL
  Human Plasma Levels Cmin: 1790 ng/mL
[1]; [15]
  Human Plasma Levels Cmax: 3900 ng/mL
  Human Plasma Levels Cmin: 1290 ng/mL
[1]; [16]
  Human Plasma Levels Cmax: 2960 ng/mL
  Human Plasma Levels Cmin: 1110 ng/mL
[1]; [17]
  Human Plasma Levels Cmax: 2960 ng/mL
  Human Plasma Levels Cmin: 1460 ng/mL
[1]; [18]
  Human Plasma Levels Cmax: 3820 ng/mL
  Human Plasma Levels Cmin: 1680 ng/mL
[1]; [19]
  Human Plasma Levels Cmax: 4260 ng/mL
  Human Plasma Levels Cmin: 302 ng/mL
[1]; [20]
  Human Plasma Levels Cmax: 2670 ng/mL
  Human Plasma Levels Cmin: 490 ng/mL
[1]; [21]
  Human Plasma Levels Cmax: 5220 ng/mL
  Human Plasma Levels Cmin: 331 ng/mL
[1]; [22]
  Human Plasma Levels Cmax: 2570 ng/mL
  Human Plasma Levels Cmin: 780 ng/mL
[1]; [23]
  Human Plasma Levels Cmax: 4910 ng/mL
  Human Plasma Levels Cmin: 387 ng/mL
[1]; [24]
  Human Plasma Levels Cmax: 3390 ng/mL
  Human Plasma Levels Cmin: 820 ng/mL
[1]; Healthy Participants, IM (gluteal) injection 100 mg IM
  Human Plasma Levels Cmax: 200 ng/mL
[1]; Healthy Participants, IM (gluteal) injection 200 mg IM
  Human Plasma Levels Cmax: 300 ng/mL
[1]; Healthy Participants, IM (gluteal) injection 400 mg (200 mg × 2)
  Human Plasma Levels Cmax: 1400 ng/mL
[1]; Healthy Participants, IM (gluteal) injection 400 mg IM
  Human Plasma Levels Cmax: 700 ng/mL
[1]; Healthy Participants, IM (gluteal) injection 800 mg IM (400 mg × 2)
  Human Plasma Levels Cmax: 3300 ng/mL
[1]; Healthy Participants, SC (abdominal) injection 100 mg
  Human Plasma Levels Cmax: 200 ng/mL
[1]; Healthy Participants, SC (abdominal) injection 200 mg
  Human Plasma Levels Cmax: 500 ng/mL
[1]; Healthy Participants, SC (abdominal) injection 400 mg (200 mg × 2)
  Human Plasma Levels Cmax: 900 ng/mL
[1]; [25]
  Human Plasma Levels Cmax: 8300 ng/mL
  Human Plasma Levels Cmin: 4900 ng/mL
[1]; [26]
  Human Plasma Levels Cmax: 2200 ng/mL
  Human Plasma Levels Cmin: 1610 ng/mL
[1]; [27]
  Human Plasma Levels Cmax: 2100 ng/mL
  Human Plasma Levels Cmin: 1660 ng/mL
[1]; [28]
  Human Plasma Levels Cmax: 4400 ng/mL
  Human Plasma Levels Cmin: 3270 ng/mL
[1]; [29]
  Human Plasma Levels Cmax: 3300 ng/mL
  Human Plasma Levels Cmin: 1100 ng/mL
[1]; [30]
  Human Plasma Levels Cmax: 2080 ng/mL
  Human Plasma Levels Cmin: 1060 ng/mL
[1]; [31]
  Human Plasma Levels Cmax: 4290 ng/mL
  Human Plasma Levels Cmin: 2390 ng/mL
[1]; [32]
  Human Plasma Levels Cmax: 9470 ng/mL
  Human Plasma Levels Cmin: 5400 ng/mL
[1]; [33]
  Human Plasma Levels Cmax: 1150 ng/mL
  Human Plasma Levels Cmin: 420 ng/mL
[1]; [34]
  Human Plasma Levels Cmax: 2150 ng/mL
  Human Plasma Levels Cmin: 830 ng/mL
[1]; [35]
  Human Plasma Levels Cmax: 4380 ng/mL
  Human Plasma Levels Cmin: 1930 ng/mL
[1]; [36]
  Human Plasma Levels Cmax: 8570 ng/mL
  Human Plasma Levels Cmin: 3820 ng/mL
[1]; Participants with HIV, CAB/rilpivirine LA injectable, repeat-dose every 4 week 400 mg
  Human Plasma Levels Cmin: 2740 ng/mL
[1]; Participants with HIV, CAB/rilpivirine LA injectable, repeat-dose every 8 week 600 mg
  Human Plasma Levels Cmin: 1670 ng/mL
[1]; Participants with HIV, repeat oral dose 5 mg
  Human Plasma Levels Cmax: 1020 ng/mL
[1]; [37]
  Human Plasma Levels Cmax: 6370 ng/mL
  Human Plasma Levels Cmin: 3280 ng/mL
[1]; [38]
  Human Plasma Levels Cmax: 520 ng/mL
  Human Plasma Levels Cmin: 230 ng/mL
[1]; Participants with HIV, single oral dose 30 mg (Ctau)
  Human Plasma Levels Cmin: 1250 ng/mL
[1]; Participants with HIV, single oral dose 30 mg
  Human Plasma Levels Cmax: 2840 ng/mL
[2]
  Fetal toxicities: no drug-related fetal toxicities
[3]; CAB orally 0, 0.5, 5, or 1000 mg/kg/day
  Fetal viability and fetal malformations: no effects on fetal viability and no drug-related fetal malformations
[3]; CAB orally 1000 mg/kg/day
  Fetal body weight: minor decrease in fetal body weight
